Patent US20200299777A1, “Methods for Resensitizing p53-Null Cells to Cancer Chemotherapy” (UNIVERSITY OF SOUTH CAROLINA, priority 2019, published 2020)

Assays:
[1] = tested on: TP53-WT hESCs; assay: Cell viability assay (resazurin), TP53 wild-type human ES cells; format: cell-based; conditions: for sensitivity of TP53-WT hESCs (cell viability): all tested concentrations
Protocol: (§1) Human H9 embryonic stem cells (ESCs) (Lot No.: WIC-WA09-MB-001, WiCell, Wisconsin) and derivatives were maintained at 37° C., 5% CO2 in chemical-defined medium TeSR-E8 medium (Stemcell Tech.) with 100 U/ml penicillin & 100 μg/ml streptomycin (Gibco) on Matrigel-coated (# CB40230A, Corning) tissue culture vessels. Authentication of H9 ESCs were performed by WiCell. ESCs were passaged every 4 to 6 days to maintain sub-confluence using 0.5 mM EDTA as described previously. Human colon cancer RKO cells (kindly given by Dr. Bert Vogelstein) and its derivatives were maintained at 37° C., 5% CO2 in McCoy's 5A media (Fisher) supplemented with 10% FBS and 100 U/ml penicillin & 100 μg/ml streptomycin (Gibco). RKO cells were passaged every 3 to 4 days to maintain sub-confluence (authentication of RKO cell line was performed by JHU-GRCF Biorepository & Cell Center). Cells were screened for mycoplasma before experiments using a MycoAlert™ Mycoplasma Detection Kit (Lonza).
(§2) NCI Approved Oncology Drug Set IV containing 127 FDA-approved anticancer drugs was obtained from the NCI under a material transfer agreement. TP53 knockout or wild-type human ES cells were seeded in 96-well microplates in E8 medium, with 6,000 cells per well that would reach about 85% confluent at the end of the assay. Human ES cells were plated one day before treatment with a 7-point two-fold dilution series (starting with 10 μM) of each compound or solvent (dimethyl sulfoxide, DMSO or Dimethylformamide, DMF) control. After 72 hours incubation, cells were stained with 35 μM resazurin (Sigma), then quantification of fluorescent signal intensity was performed on Thermo Fluorskan™ Ascent plate reader at excitation and emission wavelengths of 544/590 nm. Data were normalized to the solvent control (DMSO or DMF) group. The area under a curve (AUC) was calculated using auc function (flux package) in R. The two-side t-test was performed with tlest function in R. The hierarchical clustering analysis of drugs AUC pattern in different samples was carried out using heatmap.2 function (gplots package) in R (All R code available). Viability response curves of Cisplatin and Paclitaxel on TP53-KO hESCs or RKO cells were generated using drc package (Analysis of Dose-Response Curves) in R.

[2] = tested on: TP53-KO hESCs; assay: Cell viability assay (resazurin), TP53 knockout human ES cells; format: cell-based; conditions: for sensitivity/resistance of TP53-KO hESCs (cell viability): 7-point two-fold dilution starting with 10 μM
Protocol: as §1
TP53 knockout hESCs and RKO cells were generated using CRISPR/Cas9 as described previously with minor modifications. Briefly, human codon-optimized Streptococcus pyogenes wild type Cas9 (Cas9-2A-GFP) was obtained from Addgene (#44719). Chimeric guide RNA expression cassettes with different small guide RNA, TP53_Up_sgRNA: 5′-[…]-3′ (SEQ ID NO: 1) and TP53_Down_sgRNA: 5′-[…]-3′ (SEQ ID NO: 2) were ordered as gBlock. These gBlocks were amplified by PCR using primers: gBlock_Amplifying_F: 5′-[…]-3′ (SEQ ID NO: 3) and gBlock_Amplifying_R: 5′-[…]-3′ (SEQ ID NO: 4). The PCR product was purified by Agencourt Ampure XP PCR Purification beads according to manufacturer's protocol (Beckman Coulter). 1.5 μg of Cas9 plasmid and 0.5 μg of each gRNAgBlock were co-transfected into hESCs via Lipofectamine™ 3000 (Thermo Fisher Scientific). […] For TP53-KO RKO cells, single clones were picked up and validated by PCR and Western blotting.
as §2

[3] = tested on: TP53-KO RKO cells; assay: Paclitaxel and Cisplatin drug synergy experiment on TP53-KO RKO cells; format: cell-based, human; conditions: Paclitaxel plus Cisplatin matrix, 96 hours, two TP53-KO clones, ZIP synergy model
Protocol: (§3) A Paclitaxel and Cisplatin drug matrix (12×8) in a 96-well plate was made for drug synergy experiment. Paclitaxel on row was an 11-point two-fold dilution series with starting concentration of 0.0016 μM, and Cisplatin on column was a 7-point two-fold dilution series with starting concentration of 2 μM, 5000 TP53-KO hESCs per well or 2000 TP53-KO RKO cells per well were plated on three 96-well plates one day before treatment with Paclitaxel and Cisplatin drug matrix. After 72 hours incubation for TP53-KO hESCs and 96 hours incubation for TP53-KO RKO cells, cells were stained with 35 μM resazurin (Sigma), then quantification of fluorescent signal intensity was performed on Thermo Fluorskan™ Ascent plate reader at excitation and emission wavelengths of 544/590 nm. The drug synergy scores were evaluated using ZIP model (Zero Interaction Potency model) in synergyfinder package.

[4] = tested on: TP53-KO hESCs; assay: Paclitaxel and Cisplatin drug synergy experiment on TP53-KO hESCs; format: cell-based, human; conditions: low concentration Paclitaxel plus Cisplatin matrix, 72 hours, ZIP synergy model
Protocol: as §3

[5] = tested on: TP53-WT hESCs; assay: Cell viability assay (resazurin), TP53 wild-type human ES cells; format: cell-based; conditions: 200 nM
[6] = tested on: TP53-KO RKO cells; assay: Cisplatin viability response on TP53 knockout RKO colon cancer cells; format: cell-based, human
Protocol: as §1, with “RKO cells were passaged every 3 to 4 days to maintain sub-confluence (authentication of RKO cell line was performed by JHU-GRCF Biorepository & Cell Center). Cells were screened for mycoplasma before experiments using a MycoAlert™ Mycoplasma Detection Kit (Lonza).” left out
NCI Approved Oncology Drug Set IV containing 127 FDA-approved anticancer drugs was obtained from the NCI under a material transfer agreement. […] After 72 hours incubation, cells were stained with 35 μM resazurin (Sigma), then quantification of fluorescent signal intensity was performed on Thermo Fluorskan™ Ascent plate reader at excitation and emission wavelengths of 544/590 nm. […] The area under a curve (AUC) was calculated using auc function (flux package) in R. The two-side t-test was performed with tlest function in R. The hierarchical clustering analysis of drugs AUC pattern in different samples was carried out using heatmap.2 function (gplots package) in R (All R code available). […]

[7] = tested on: ZNF207/BuGZ knockout TP53-KO hESCs; assay: Validation of ZNF207/BuGZ knockout in Cas9-expressing TP53-KO hESCs treated with Cisplatin (qPCR of knockout locus); format: cell-based, human
Protocol: Human TP53 knockout embryonic stem cells were infected at low MOI by viruses produced using pCLIP-Cas9-Nuclease-EFS-Blast (TransOMIC) and selected using blastcidin (10 μg/ml). The stable Cas9-expressing TP53-KO hESCs were infected with viruses with two sgRNAs against gene ZNF207/BuGZ (# TEDH-1090944, TransOMIC) or control gene OR1C1 (# TEDH-1055091, TransOMIC). These two sgRNAs could induce fragment deletion. We treated these cells with either 200 nM Cisplatin or vehicle DMF. We used realtime quantitative PCR to quantify the ZNF207 knockout locus, using gRNA flanking primers that only amplify when the intervening sequence has been deleted.
The relative percentage of ZNF207 or OR1C1 knockout cell number was defined as:
2^−ΔCT(Gene−LINE)/2^−ΔCT(Gene−LINE) at Day0.

[8] = 72 hours, resazurin, low concentrations

Compound	sensitivity of TP53-WT hESCs (cell viability) ([1]; 72 hours, resazurin)	sensitivity/resistance of TP53-KO hESCs (cell viability) ([2]; 72 hours, resazurin)	sensitivity of TP53-WT hESCs at low concentration (cell viability) ([1]; 72 hours, resazurin)	also measured
CCCCCOC(=O)Nc1nc(=O)n([C@@H]2O[C@H](C)[C@@H](O)[C@H]2O)cc1F [Capecitabine]	resistant	resistant		
N.N.O=C([O-])C1(C(=O)[O-])CCC1.[Pt+2] [Carboplatin]		resistant	very sensitive	
N.N.[Cl][Pt][Cl] [Cisplatin]		resistant	very sensitive	inhibition of Cisplatin on TP53-KO RKO cells in combination with Paclitaxel [3]: increased greatly; inhibition of Cisplatin on TP53-KO hESCs in combination with Paclitaxel [4]: increased; sensitivity of TP53-WT hESCs at the optimal concentration [5]: very sensitive; resistance of TP53-KO hESCs at the optimal concentration ([2]; 200 nM): very resistant; resistance of TP53-KO RKO cells compared to TP53-WT RKO cells [6]: resistant; sensitivity of ZNF207/BuGZ knockout TP53-KO hESCs ([7]; 200 nM vs vehicle DMF, two more TP53-KO hESC lines): more sensitive; depletion of ZNF207/BuGZ knockout cells versus DMF vehicle control ([7]; 200 nM, ten days, qPCR at day 6 and 10): depleted faster
CC(=O)O[C@@]12CO[C@@H]1C[C@H](O)[C@@]1(C)C(=O)[C@H](O)C3=C(C)[C@@H](OC(=O)[C@H](O)[C@@H](NC(=O)OC(C)(C)C)c4ccccc4)C[C@@](O)([C@@H](OC(=O)c4ccccc4)[C@H]21)C3(C)C [Docetaxel]	sensitive	sensitive		
O=c1[nH]cc(F)c(=O)[nH]1 [Fluorouracil]				sensitivity of TP53-WT hESCs at high concentrations ([1]; 72 hours, resazurin, high concentrations): sensitive; resistance of TP53-WT hESCs at low concentrations [1, 8]: resistant; resistance of TP53-KO hESCs at low concentrations [2, 8]: resistant
CCc1c2c(nc3ccc(OC(=O)N4CCC(N5CCCCC5)CC4)cc13)-c1cc3c(c(=O)n1C2)COC(=O)[C@]3(O)CC [Irinotecan]		resistant		sensitivity of TP53-WT hESCs at low concentration (0.16 μM) ([1]; 72 hours, resazurin): very sensitive
COc1ccc(C2=N[C@@H](c3ccc(Cl)cc3)[C@@H](c3ccc(Cl)cc3)N2C(=O)N2CCNC(=O)C2)c(OC(C)C)c1 [Nutlin-3a]				growth inhibitory effect on TP53-WT hESCs ([1]; very low concentrations): severely growth arrested
O=C(c1cc(Cc2n[nH]c(=O)c3ccccc23)ccc1F)N1CCN(C(=O)C2CC2)CC1 [Olaparib]		resistant	very sensitive	
O=C1[O][Pt]2([NH][C@@H]3CCCC[C@H]3[NH]2)[O]C1=O [Oxaliplatin]		resistant		sensitivity of TP53-WT hESCs at low concentration (0.16 μM) ([1]; 72 hours, resazurin): very sensitive
CC(=O)O[C@H]1C(=O)[C@@]2(C)[C@H]([C@H](OC(=O)c3ccccc3)[C@]3(O)C[C@H](OC(=O)[C@H](O)[C@@H](NC(=O)c4ccccc4)c4ccccc4)C(C)=C1C3(C)C)[C@]1(OC(C)=O)CO[C@@H]1C[C@@H]2O [Paclitaxel]	sensitive	sensitive		
